Data reported in PubChem BioAssay (NCI).
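Step 1: Grow cells in 96-well plates. Step 2: Expose to compound for 48 hours at 5 concentrations. Step 3: Interpolate endpoints linearly; if unreached, use highest concentration. TGI denotes the concentration required for complete inhibition of growth.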

Columns and labels:
Experiment in all cases: NCI tumour cell line growth inhibition, 48 h
UACC-62 melanoma = test system: UACC-62 melanoma
HL-60(TB) leukemia = test system: HL-60(TB) leukemia
SR leukemia = test system: SR leukemia
SK-MEL-28 melanoma = test system: SK-MEL-28 melanoma
K-562 leukemia = test system: K-562 leukemia
MCF7 breast = test system: MCF7 breast
SNB-19 CNS = test system: SNB-19 CNS
LOX IMVI melanoma = test system: LOX IMVI melanoma
CAKI-1 renal = test system: CAKI-1 renal
MOLT-4 leukemia = test system: MOLT-4 leukemia
BT-549 breast = test system: BT-549 breast
DU-145 prostate = test system: DU-145 prostate
OVCAR-4 ovarian = test system: OVCAR-4 ovarian
MALME-3M melanoma = test system: MALME-3M melanoma
U251 CNS = test system: U251 CNS
UACC-257 melanoma = test system: UACC-257 melanoma
SK-MEL-5 melanoma = test system: SK-MEL-5 melanoma
NCI-H226 lung = test system: NCI-H226 lung
HCC-2998 colon = test system: HCC-2998 colon
RXF 393 renal = test system: RXF 393 renal
NCI-H460 lung = test system: NCI-H460 lung
SF-268 CNS = test system: SF-268 CNS
EKVX NSCLC = test system: EKVX NSCLC
786-0 renal = test system: 786-0 renal
SW-620 colon = test system: SW-620 colon
MDA-N = test system: MDA-N
HOP-92 NSCLC = test system: HOP-92 NSCLC
SN12C renal = test system: SN12C renal
SF-539 CNS = test system: SF-539 CNS
OVCAR-5 ovarian = test system: OVCAR-5 ovarian
HOP-62 NSCLC = test system: HOP-62 NSCLC
NCI-H522 lung = test system: NCI-H522 lung
SF-295 CNS = test system: SF-295 CNS
M14 melanoma = test system: M14 melanoma
SK-MEL-2 melanoma = test system: SK-MEL-2 melanoma
T-47D breast = test system: T-47D breast
ACHN renal = test system: ACHN renal
HS 578T breast = test system: HS 578T breast
TK-10 renal = test system: TK-10 renal
HT29 colon = test system: HT29 colon
PC-3 prostate = test system: PC-3 prostate
MDA-MB-435 = test system: MDA-MB-435
SNB-75 CNS = test system: SNB-75 CNS
HCT-15 colon = test system: HCT-15 colon
HCT-116 colon = test system: HCT-116 colon
OVCAR-3 ovarian = test system: OVCAR-3 ovarian
UO-31 renal = test system: UO-31 renal
KM12 colon = test system: KM12 colon
RPMI-8226 leukemia = test system: RPMI-8226 leukemia
MDA-MB-231 breast = test system: MDA-MB-231 breast
COLO 205 colon = test system: COLO 205 colon
NCI/ADR-RES ovarian = test system: NCI/ADR-RES ovarian
SK-OV-3 ovarian = test system: SK-OV-3 ovarian
IGROV1 ovarian = test system: IGROV1 ovarian
A549 NSCLC = test system: A549 NSCLC
CCRF-CEM leukemia = test system: CCRF-CEM leukemia
OVCAR-8 ovarian = test system: OVCAR-8 ovarian
NCI-H23 lung = test system: NCI-H23 lung
A498 renal = test system: A498 renal

Measured: TGI

O=C(/C=C(\Nc1ccccc1O)c1ccc(Br)cc1)C(Cl)(Cl)Cl
32.5 µM: K-562 leukemia
16.5 µM: SW-620 colon
26.5 µM: NCI-H226 lung
31.6 µM: HOP-62 NSCLC
29.2 µM: MALME-3M melanoma | M14 melanoma
27 µM: OVCAR-8 ovarian
11.9 µM: PC-3 prostate
21.8 µM: MDA-MB-435
33.7 µM: MOLT-4 leukemia
19.2 µM: OVCAR-4 ovarian | RXF 393 renal
27.7 µM: SK-MEL-5 melanoma
24.5 µM: OVCAR-5 ovarian
12.9 µM: NCI-H460 lung
26.3 µM: UACC-62 melanoma
23.7 µM: IGROV1 ovarian
13.9 µM: EKVX NSCLC | KM12 colon
18.1 µM: HS 578T breast
18.5 µM: OVCAR-3 ovarian
20.3 µM: SNB-19 CNS | MDA-MB-231 breast
19.1 µM: TK-10 renal
14.9 µM: ACHN renal
7.29 µM: RPMI-8226 leukemia
17.3 µM: MDA-N
26.8 µM: SNB-75 CNS
25.8 µM: SF-268 CNS
20.7 µM: CAKI-1 renal | SK-MEL-2 melanoma
24.6 µM: SK-MEL-28 melanoma
30.2 µM: NCI-H522 lung
10.8 µM: UO-31 renal
20.8 µM: HT29 colon
20.1 µM: UACC-257 melanoma
27.6 µM: 786-0 renal
20 µM: MCF7 breast | SN12C renal | SF-295 CNS
36.7 µM: SR leukemia | CCRF-CEM leukemia
22.1 µM: COLO 205 colon
13.8 µM: DU-145 prostate
28.5 µM: BT-549 breast
20.2 µM: T-47D breast
5.88 µM: HCC-2998 colon
22.4 µM: HCT-116 colon
12.4 µM: A549 NSCLC
25.1 µM: NCI/ADR-RES ovarian
16 µM: SK-OV-3 ovarian
27.1 µM: SF-539 CNS
32.9 µM: LOX IMVI melanoma
26.1 µM: NCI-H23 lung
25.9 µM: HCT-15 colon
9.39 µM: HL-60(TB) leukemia
15.4 µM: U251 CNS | HOP-92 NSCLC

C=CCNC(=O)CN(CC(=O)OC)C1CCCCC1N(CC(=O)OC)CC(=O)OC (stereo not drawn)
not listed: SR leukemia | OVCAR-4 ovarian | 786-0 renal | SNB-75 CNS | COLO 205 colon
> 100 µM: all other assays above

COc1cc(C(=O)O)c(-c2cc3c(cc2C=O)OCO3)c(OC)c1OC
not listed: NCI-H226 lung | RXF 393 renal | NCI-H460 lung | EKVX NSCLC | OVCAR-5 ovarian | SK-MEL-2 melanoma | UO-31 renal | A498 renal
> 10 µM: all other assays above
